The values that follow come from patent publication US5688654A, “GABA a receptor subtypes and methods for screening drug compounds using imidazoquinoxalines and pyrrolopyrimidines to bind to GABAa receptor subtypes” (Neurogen Corporation, priority 1994, dated 1997).

One may read the Ki as the equilibrium dissociation constant of an inhibitor or competing ligand from its target.

In one assay the target is GABAa receptor subtype. The assay is described as follows: Drug screening assay: displacement of 3H-Compound 1 from rat cortical tissue (novel GABAa receptor subtype). Type of assay: binding. Particulars: Table I; 0.5 nM 3H-Compound 1, rat cortical tissue, 20 min at 4° C., buffer with 1 uM Ro 15-1788 and 10 uM muscimol; Ki by Cheng Prusoff. How it is done:
The methods for screening drug compounds of the invention using the novel GABAa receptor are illustrated by the following assays for GABAa receptor subtype activity.
Assays were carried out using the tissue preparation described in Thomas and Tallman (J. Bio. Chem. 156: 9838-9842, 1983, J. Neurosci 3: 433-440, 1983). Rat cortical tissue was dissected and homogenized in 25 volumes (w/v) of 0.05M Tris HCl buffer (pH 7.4 at 4° C.). The tissue homogenate was centrifuged in the cold (4°) at 20,000×g for 20'. The supernatant was decanted and the pellet was rehomogenized in the same volume of buffer and again centrifuged at 20,000×g. The supernatant was decanted and the pellet was frozen at -20° C. overnight. The pellet was then thawed and rehomogenized in 25 volume (original wt/vol) of buffer and the procedure was carried out twice. The pellet was finally resuspended in 50 volumes (w/vol of 0.05M Tris HCl buffer containing 1 uM Ro 15-1788. 1 uM sodium ascorbate and 10 uM muscimol (pH 7.4 at 4° C.).
Incubation mixtures contained 400 μl of tissue homogenate. 5μl of 100 nM ligand in above buffer [final ligand concentration was 0.5 nM ^3 H-Compound 1 (specific activity 67 Ci/mmol)], drug or blocker and buffer to a total volume of 1 ml. Incubations were carried for 20 min at 4° C. then were rapidly filtered through GFB filters to separate free and bound ligand. Filters were washed twice with fresh 0.05M Tris HCl buffer (pH 7.4 at 4° C.) and counted in a liquid scintillation counter. 10 μM Compound 3 was added to some tubes to determine nonspecific binding. Data were collected in triplicate determinations, averaged and % inhibition of total specific binding was calculated. Total Specific Binding=Total-Nonspecific. Typically the specific binding represented about 75 to 85% of total binding. In some cases, the amounts of unlabeled drugs was varied and total displacement curves of binding were carried out. Data were convened to a form suitable for the calculation of IC50 and Hill Coefficient (nH). These IC 50's were convened to Ki's using the Cheng Prusoff equation (Cheng and Prussoff, 1973, Biochem. Pharmacol. 22: 3099.).
Background: In a radioligand displacement assay an active substance lowers the binding of a labelled ligand.

The next assay deals with known GABAa receptors. Particulars: Table II, no method given; cited from earlier work.
Assay [1] deals with benzodiazepine binding site. As to conditions: Tallman et al., 1978; cited from earlier work.

For the molecule `Cc1ccc(-c2nc3ccc(C)cn3c2CC(=O)N(C)C)cc1` [Zolpidem], the Ki was 2200 nM at GABAa receptor subtype and 20 nM at known GABAa receptors.
At GABAa receptor subtype, `CCOc1ccc(-n2c(=O)c3cn(C)c4ccccc4n-3c2=O)cc1` [Compound 5, 2-(4-Ethoxyphenyl)-5-methyl-imidazo[1,5,a]quinoxaline-1,3(2H,5H)-dione] came in with a Ki of 6 nM.
Regarding `NCCCC(=O)O` [GABA, γ-Aminobutyric acid], the “effect on benzodiazepine binding / on its enhancement by GABA agonists (in words)” value in assay [1] was “enhance the binding of benzodiazepines”.
As for `CC(C)(C)OC(=O)c1ncn2c1[C@@H]1CCCN1C(=O)c1c(Br)cccc1-2` [Bretazenil], the Ki at GABAa receptor subtype is 15000 nM; on known GABAa receptors it was 1 nM.
Molecule `Cc1nnc2n1-c1ccc(Cl)cc1C(c1ccccc1)=NC2` [Alprazelam] displayed a Ki on GABAa receptor subtype of 8000 nM.
Consider `CN1CCc2cc3c(cc2C1C1OC(=O)c2c1ccc1c2OCO1)OCO3` (single isomer, unassigned; (-)) [(-) bicuculline], for which, in assay [1], the “effect on benzodiazepine binding / on its enhancement by GABA agonists (in words)” value was “much less active”.
At GABAa receptor subtype, `CCOc1ccc(-n2c(=O)c3c[nH]c4cc(C)ccc4n-3c2=O)cc1` [Compound 4, 2-(4-Ethoxyphenyl)-7-methyl-imidazo[1,5,a]quinoxaline-1,3(2H,5H)-dione] gave a Ki of 0.5 nM.
On the same count and under the same terms, as for `CCOc1ccc(-n2c(=O)c3c[nH]c4ccccc4n-3c2=O)cc1` [Compound 1, 2-(4-Ethoxyphenyl)imidazo[1,5.a]quinoxaline-1,3(2H,5H)-dione], the figure is 0.5 nM; as for `COc1cccc(-c2ncc3[nH]c4c(c3n2)CCCC4)c1` [Compound 7, 2-(3-Methoxyphenyl)-6,7,8,9-tetrahydro-5H-indolo[3.2-d]-pyrimidine], 50 nM.
Consider `CN1CCc2cc3c(cc2C1C1OC(=O)c2c1ccc1c2OCO1)OCO3` (single isomer, unassigned; (+)) [(+) bicuculline], for which, in assay [1], the “effect on benzodiazepine binding / on its enhancement by GABA agonists (in words)” value is on record as “blocked”.
For the molecule `CCOC(=O)c1ncn2c1CN(C)C(=O)c1cc(F)ccc1-2` [Flumazenil], the Ki on GABAa receptor subtype is 7500 nM; on known GABAa receptors, 1 nM.
For the molecule `CN1C(=O)CN=C(c2ccccc2)c2cc(Cl)ccc21` [Diazepam], the results for the Ki on GABAa receptor subtype and at known GABAa receptors were 5000 nM and 6 nM, respectively.
Consider `CCCOc1ccc(-n2c(=O)c3c[nH]c4ccccc4n-3c2=O)cc1` [Compound 3, 2-(4-Propyloxyphenyl)imidazo[1,5,a]quinoxaline-1,3(2H,5H)-dione], for which the Ki on GABAa receptor subtype worked out at 0.9 nM.
On the same count and under the same terms, as for `COc1cccc(-n2c(=O)c3c[nH]c4ccccc4n-3c2=O)c1` [Compound 6, 2-(3-Methoxyphenyl)imidazo[1,5.a]quinoxaline-1,3(2H,5. H)-dione], the figure is 0.55 nM; as for `COc1ccc(F)c(-c2ncc3[nH]c4c(c3n2)CCCC4)c1` [Compound 2, 2-(2-Fluoro-5-methoxyphenyl)-6,7,g,9-tetrahydro-5H-indolo[3,2-d]-pyrimidine], 3.9 nM.
